The text below walks through data of US8653087B2, “Pyrido [5, 4-D] pyrimidines as cell proliferation inhibitors” (Boehringer Ingelheim International GmbH, priority 2008, dated 2014).

Each structure is given as a SMILES string.

Usually IC50 stands for the concentration that gives 50% inhibition.

This assay has as its target B-Raf (V600E)-kinase (Homo sapiens (Human), UniProt P15056, V600E). Put plainly: Kinase test B-RAF (V600E). It counts as biochemical. Particulars: B-RAF (V600E) kinase test, 250 μM ATP. The essentials: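 B-Raf (V600E) (0.5 ng) preincubated with compound 24 h at RT (5% DMSO), then reacted 60 min at RT with 250 μM ATP and biotinylated MEK1 as substrate. Phospho-MEK (Ser217/221) captured on streptavidin and detected by europium time-resolved fluorescence; IC50 from dose-response curves.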

B-Raf (V600E)-kinase, sequence (P15056 whole entry V600E): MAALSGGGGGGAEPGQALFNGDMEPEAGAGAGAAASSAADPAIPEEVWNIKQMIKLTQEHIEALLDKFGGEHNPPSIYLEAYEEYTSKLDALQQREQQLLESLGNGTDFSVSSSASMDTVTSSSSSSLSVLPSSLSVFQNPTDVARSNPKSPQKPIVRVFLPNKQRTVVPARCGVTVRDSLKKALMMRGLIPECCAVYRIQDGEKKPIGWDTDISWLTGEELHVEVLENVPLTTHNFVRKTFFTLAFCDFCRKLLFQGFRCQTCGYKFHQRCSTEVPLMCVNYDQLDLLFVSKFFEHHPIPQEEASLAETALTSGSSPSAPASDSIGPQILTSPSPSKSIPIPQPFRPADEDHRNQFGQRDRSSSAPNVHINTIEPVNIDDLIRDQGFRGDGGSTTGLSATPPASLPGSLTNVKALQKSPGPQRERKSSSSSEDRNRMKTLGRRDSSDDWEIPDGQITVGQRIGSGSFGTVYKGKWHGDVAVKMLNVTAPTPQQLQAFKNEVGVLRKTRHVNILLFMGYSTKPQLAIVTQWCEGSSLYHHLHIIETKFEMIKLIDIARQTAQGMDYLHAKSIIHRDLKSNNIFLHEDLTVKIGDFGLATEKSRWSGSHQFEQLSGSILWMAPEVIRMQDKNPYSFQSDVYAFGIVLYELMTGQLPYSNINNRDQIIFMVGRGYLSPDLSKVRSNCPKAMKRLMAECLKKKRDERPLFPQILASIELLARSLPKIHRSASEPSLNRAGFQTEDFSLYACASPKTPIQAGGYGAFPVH

On to `CNc1ncc2ncnc(Nc3cc(C(=O)Nc4cc(CN5CCCC5)cc(C(F)(F)F)c4)ccc3C)c2n1` [III-116], for which the IC50 is less than 1 nM.

Consider `Cc1ccc(C(=O)Nc2cccc(C(F)(F)F)c2)cc1Nc1ncnc2cnc(N3CCCCC3)nc12` [III-330], for which it took 6 nM to reach half-maximal inhibition (IC50).

The molecule `Cc1ccc(C(=O)Nc2cc(C(C)(C)C)on2)cc1Nc1ncnc2cnc(N3C[C@H]4C[C@@H]3CN4C)nc12` [III-497] had an IC50 of 2 nM.

With `Cc1ccc(C(=O)Nc2cccc(N(C)C)c2)cc1Nc1ncnc2cnc(N(C)CCN(C)C)nc12` [III-238], the midpoint of inhibition, the IC50, lay at 87 nM.

Molecule `Cc1ccc(C(=O)Nc2cccc(C(F)(F)F)c2)cc1Nc1ncnc2cnc(N3CC[C@H](F)C3)nc12` [III-287] showed an IC50 of 1 nM.

In the case of `Cc1ccc(C(=O)Nc2cc(C(C)(C)C)nn2C)cc1Nc1ncnc2c(N)nc(N3CCN(CC(C)C)CC3)nc12` [I-84], half-maximal inhibition (IC50) was put at 11 nM.

In the case of `COc1ccc(C(C)(C)C)cc1NC(=O)c1ccc(C)c(Nc2ncnc3cnc(N4CCCN(C)CC4)nc23)c1` [III-225], half-maximal inhibition (IC50) was put at 2 nM.

On to `COc1ccc(NC(=O)c2ccc(C)c(Nc3ncnc4cnc(N5CCC[C@H]5CO)nc34)c2)cc1C(F)(F)F` [III-546], for which the IC50 is 4 nM.

In turn, `COc1ccc(C(F)(F)F)cc1NC(=O)c1ccc(C)c(Nc2ncnc3cnc(NC4CCOC4)nc23)c1` (stereo not drawn) [III-347] returned an IC50 of 1 nM.

On to `CCN1CCN(c2cc(NC(=O)c3ccc(C)c(Nc4ncnc5c(N)nc(N(C)C)nc45)c3)cc(C(F)(F)F)c2)CC1` [I-79], for which the IC50 stood at 19 nM.

`Cc1ccc(C(=O)Nc2cc(OCCN(C)C)cc(C(F)(F)F)c2)cc1Nc1ncnc2cnc(NCC3CCOC3)nc12` (stereo not drawn) [III-146]: the IC50 is less than 1 nM.

For the molecule `Cc1ccc(C(=O)Nc2cccc(OC(F)(F)F)c2)cc1Nc1ncnc2cnc(N(C)CCN(C)C)nc12` [III-237], the IC50 is 2 nM.

Molecule `Cc1ccc(C(=O)Nc2cc(C(C)(C)C)nn2C)cc1Nc1ncnc2cnc(N3CCOCC3)nc12` [III-513] displayed an IC50 of 1 nM.

Molecule `Cc1ccc(C(=O)Nc2cc(OCCN(C)C)cc(C(F)(F)F)c2)cc1Nc1ncnc2cnc(N3CCOCC3)nc12` [III-149] registered an IC50 of less than 1 nM.

With `Cc1ccc(C(=O)Nc2cccc(S(=O)(=O)N(C)C)c2)cc1Nc1ncnc2cnc(N3CCNCC3)nc12` [III-344], 7 nM corresponded to half-maximal inhibition (IC50).

The molecule `O=C(NC1CCOC1)c1ccc(F)c(Nc2ncnc3cnc(NC4CCOC4)nc23)c1` (stereo not drawn) [III-380] gave an IC50 of 1400 nM.

`COc1ccc(C(C)(C)C)cc1NC(=O)c1ccc(C)c(Nc2ncnc3cnc(N4CCCCC4)nc23)c1` [III-249] registered an IC50 of 10 nM.

Take `COCCN1CCN(c2ncc3ncnc(Nc4cc(C(=O)Nc5cc(-n6cnc(C)c6)cc(C(F)(F)F)c5)ccc4C)c3n2)CC1` [III-502]: it took 8 nM to reach half-maximal inhibition (IC50).

For `COc1ncc2ncnc(Nc3cc(C(=O)Nc4cc(N5CCN(C(C)C)CC5)cc(C(F)(F)F)c4)ccc3C)c2n1` [III-567], 2 nM corresponded to half-maximal inhibition (IC50).

In the case of `Cc1ccc(NC(=O)c2cccc(C(C)(C)C#N)c2)cc1Nc1ncnc2cnc(NC3CCN(C)CC3)nc12` [IV-28], the IC50 was 1 nM.

The molecule `Cc1ccc(C(=O)Nc2ccnc(C(C)(C)C)c2)cc1Nc1ncnc2cnc(NC3CCN(C)CC3)nc12` [III-595] registered an IC50 of 1 nM.
